Test results: patent US10561638B2, “Methods for treating dependence” (Biotie Therapies, Inc., priority 2007, dated 2020)

What was measured:
[1] = test system: left ventricle norepinephrine and dopamine levels; assay: Left ventricle catecholamines after two i.v. doses; format: in vivo, Sprague-Dawley rats; details: 15 mg/kg iv x2, left ventricle
Description: The purpose of this study was to determine the effects of intravenous administration of nepicastat (hereafter referred to as nepicastat) on the levels of dopamine and norepinephrine in the left ventricle in Sprague-Dawley rats. Animals received two intravenous (iv) administrations, 12 hours apart, of either vehicle (75% propylene glycol+25% DMSO; 1.0 ml/kg) or 15 mg/kg of nepicastat. Tissue norepinephrine and dopamine levels were measured six hours after the last compound administration.
Sixteen to 17 week old male Sprague-Dawley rats, weighing 300-400 grams, were allowed food and water ad libitum. Animals were weighed and randomly assigned, the afternoon before the study, to one of the following treatment groups (n=10 per group): vehicle (1.0 ml/kg) or nepicastat at 15 mg/kg.
Each rat was dosed iv in the tail vein the afternoon before harvest. The dosing was repeated 12 hours later the following morning. Six hours after the final administration rats were anesthetized with halothane, decapitated, and the left ventricle was rapidly harvested and weighed. The ventricle was placed in 1.0 ml iced 0.4 M perchloric acid. Tissues were immediately frozen in liquid nitrogen and stored at −70° C. Tissue dopamine and norepinephrine concentrations were assayed by high performance liquid chromatography using electrochemical detection.
A one-way analysis of variance (ANOVA) with a main effect for treatment was performed for norepinephrine. A Kruskal-Wallis was performed for dopamine and their ratio primarily due to heterogeneous variances among treatment groups. Subsequent pairwise comparisons between nepicastat treated rats and vehicle were performed using Fisher's LSD test. A Bonferroni adjustment was performed on all p-values to ensure an overall experiment-wise type 1 error rate of 5%.

[2] = test system: plasma noradrenaline, dopamine and epinephrine; assay: Plasma catecholamines in beagle dogs, 2 mg/kg b.i.d. for 15 days; format: in vivo
Description: Male beagle dogs were randomized to be orally dosed with either empty capsules (control) or nepicastat (2 mg·kg^−1, po, b.i.d.) for 15 days. Daily venous blood samples were drawn, six hours after the first dose, for measurement of plasma concentrations of dopamine and noradrenaline. The samples were collected in tubes containing heparin and glutathione, centrifuged at −4° C. and the separated plasma was stored at −70° C. until analysis. […] When compared to the control group, nepicastat (2 mg·kg^−1, b.i.d, po) produced significant decreases in plasma concentrations of noradrenaline and increases in plasma concentrations of dopamine and dopamine/noradrenaline ratio.
The chronic effects of nepicastat (14.5 day treatment) on the plasma DA/NE ratio were investigated in normal dogs. Animals were randomized to receive, orally, either placebo (empty capsule) or nepicastat (2 mg/kg, b.i.d) for 14.5 days. Daily blood samples were drawn, 6 h after the first dose, for the measurement of plasma concentrations of DA and NE. The samples were collected in tubes containing heparin and glutathione, centrifuged at −4° C. and stored at −70° C. until analysis.
Male Beagle dogs (Marshall farms, North Rose, N.Y.) weighing between 9-16 kg were used in the study. The animals were allowed water ad libitum and given food once daily at ˜10.00 AM. Animals were randomly assigned to one of the following treatment groups (n=8/group): placebo (empty capsule), or nepicastat at 2 mg/kg b.i.d (4 mg/kg/day). Each animal received 2 doses daily, morning and afternoon (8-10 hours apart). Daily blood samples (10 ml) were drawn 6 h after the AM dose for measurement of plasma levels of nepicastat and catecholamines. The blood was collected in tubes containing heparin and glutathione and centrifuged at −4° C. within 1 h of collection. The plasma was separated and divided into two samples, one for the measurement of plasma catecholamines and the other for analysis of nepicastat.
Plasma norepinephrine (NE), dopamine (DA) and epinephrine (EPI) were analyzed by HPLC using electrochemical detection. Plasma concentration of nepicastat was determined by HPLC using electrochemical detection.
The BQL (below quantitation limit) in the DA concentration of dog 1 at day 10 was set to 0; 1n (0) was set to missing. The analysis was performed using a mixed model (using PROC MIXED) with the day and treatment categorical variables being fixed and the dog within treatment being a random factor. For the fixed effects, the interaction between the day and the treatment was included, since the difference between the drug and placebo groups varies from day to day. Contrasts were calculated using the CONTRAST statement, which correctly takes into account the error terms for each particular contrast. In particular, the contrasts comparing the treatment group to the […] uses the dog mean square for its error term, while the comparisons used to establish steady state are all within dog comparisons, and require the error mean square.
The time period of steady state was calculated using the Helmert transformation (cf. SAS PROC GLM manual). These transformations compare each treatment mean with the average of the treatment means of the time points following. The steady state period is defined to start at the first time point following the maximum time at which the Helmert contrast is statistically significant. However, since this method can fail to detect a smoothly changing process, as appears might be the case here, the slope of the analyte concentration during the steady state period also was calculated. The slope during the steady state period was calculated for each dog individually, yielding one slope per animal. Univariate statistics on the slopes were then calculated, with Normal theory confidence intervals built on the mean slope, and the hypothesis of slope equaling zero was tested, and its Normal theory p-value was calculated. […]

[3] = test system: plasma dopamine/norepinephrine; assay: Plasma dopamine/norepinephrine in congestive heart failure patients; format: in vivo, human
Description: In studies of congestive heart failure patients, changes in plasma dopamine levels, norepinephrine levels, and dopamine/norepinephrine ratios after treatment with nepicastat in a 10 day study were determined.
In studies of congestive heart failure patients, plasma dopamine levels, norepinephrine levels, and dopamine/norepinephrine ratios and changes of the levels and the ratios after treatment with nepicastat in a 30 day study were determined.

SMILES: Cl.NCc1c[nH]c(=S)n1[C@H]1CCc2c(F)cc(F)cc2C1 [nepicastat, (S)-5-Aminomethyl-1-(5,7-difluoro-1,2,3,4-tetrahydronaphth-2-yl)-2,3-dihydro-2-thioxo-1H-imidazole hydrochloride]
- decrease in norepinephrine levels [1]: 51%
- increase in dopamine levels [1]: 472%
- increase in dopamine/norepinephrine ratio [1]: 1117%
- day of peak decrease in plasma EPI [2]: 8 days
- day of peak decrease in plasma NE [2]: 6 days
- day of peak increase in plasma DA [2]: 7 days
- day of peak increase in plasma DA/NE ratio [2]: 6 days
- days of dosing until decrease in plasma noradrenaline attained significance [2]: 4 days
- decrease in plasma EPI vs placebo [2]: 1.91 fold
- decrease in plasma NE vs placebo [2]: 2.1 fold
- increase in plasma DA vs placebo [2]: 7.5 fold
- increase in plasma DA/NE ratio vs placebo [2]: 13.6 fold
- time of peak effect on plasma DA/NE ratio [2]: 6 to 7 days
- time to steady-state of effect on plasma DA [2]: ~8 days post-dose
- time to steady-state of effect on plasma EPI [2]: ~6 days post-dose
- time to steady-state of effect on plasma NE [2]: approximately 4 days post-dose
- dopamine/norepinephrine levels ([3]; 10 day study): increased dopamine/norepinephrine levels
- dopamine/norepinephrine levels ([3]; 30 day study): increased dopamine/norepinephrine levels
